20 molecules from patent US11390624B2, “Pyrazolopyridines and triazolopyridines as A2A / A2B inhibitors” (Incyte Corporation, priority 2019, dated 2022) can be followed below.

Experiment [1] concerns the target human adenosine A2B receptor (Homo sapiens (Human), UniProt P29275). Nature of the experiment: Adenosine A2B Receptor Cyclic AMP GS Assay. It is filed as cell-based. To be noted: HEK-293 cells, agonist NECA at 12 nM, cAMP accumulation; read-out: A2B—cAMP_EC50. As to the method:
Stably transfected HEK-293 cells expressing the human adenosine A2B receptor (Perkin Elmer) were maintained in MEM culture medium with 10% FBS and 100 μg/mL Geneticin (Life Technologies). 18 to 24 hours prior to assay, geneticin was removed from culture. The cisbio cAMP-GS Dynamic kit utilizing the FRET (Fluorescence Resonance Energy Transfer) technology was used to measure cAMP accumulation in the cells. Compounds of the present disclosure at an appropriate concentration were mixed with 10000 cells/well in white 96 well half area plates (Perkin Elmer) for 30 min at room temperature gently shaking. Agonist, NECA (R&D Technologies) at 12 nM was added to each well for 60 min at room temperature gently shaking. Detection reagents, d2-labeled cAMP (acceptor) and anti-cAMP cryptate (donor) were added to each well for 60 min at RT gently shaking. Plates were read on Pherastar (BMG Labtech), fluorescence ratio 665/620 was calculated and EC50 determination was performed by fitting the curve of percent of control versus the log of the compound concentration using GraphPad Prism.
(Cyclic AMP is a second messenger, typically raised through Gs and lowered through Gi signalling.)

Experiment [2] has as its target Adenosine A2A receptor (Tag-lite Adenosine A2A labeled cells) (Homo sapiens (Human), UniProt P29274). The experiment in a line: A2A Tag-lite HTRF Assay. Type of experiment: binding. The settings on record: displacement of Adenosine A2A Receptor Red antagonist fluorescent ligand, 12.5 nM. The text has this:
The final concentration of DMSO was 1%.
For orientation: Time-resolved FRET reads energy transfer from a long-lived donor to a nearby acceptor.

Chain of human adenosine A2B receptor (P29275 whole entry): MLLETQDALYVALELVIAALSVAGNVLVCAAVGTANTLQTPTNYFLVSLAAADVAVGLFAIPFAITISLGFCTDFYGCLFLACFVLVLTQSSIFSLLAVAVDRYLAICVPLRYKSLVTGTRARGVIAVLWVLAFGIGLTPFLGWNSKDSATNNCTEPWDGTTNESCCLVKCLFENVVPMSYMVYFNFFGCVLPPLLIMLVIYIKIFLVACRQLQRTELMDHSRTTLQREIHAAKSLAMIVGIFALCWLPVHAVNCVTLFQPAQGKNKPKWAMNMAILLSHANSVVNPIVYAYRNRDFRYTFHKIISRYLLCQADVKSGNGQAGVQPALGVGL
Chain of Adenosine A2A receptor (Tag-lite Adenosine A2A labeled cells) (P29274 whole entry): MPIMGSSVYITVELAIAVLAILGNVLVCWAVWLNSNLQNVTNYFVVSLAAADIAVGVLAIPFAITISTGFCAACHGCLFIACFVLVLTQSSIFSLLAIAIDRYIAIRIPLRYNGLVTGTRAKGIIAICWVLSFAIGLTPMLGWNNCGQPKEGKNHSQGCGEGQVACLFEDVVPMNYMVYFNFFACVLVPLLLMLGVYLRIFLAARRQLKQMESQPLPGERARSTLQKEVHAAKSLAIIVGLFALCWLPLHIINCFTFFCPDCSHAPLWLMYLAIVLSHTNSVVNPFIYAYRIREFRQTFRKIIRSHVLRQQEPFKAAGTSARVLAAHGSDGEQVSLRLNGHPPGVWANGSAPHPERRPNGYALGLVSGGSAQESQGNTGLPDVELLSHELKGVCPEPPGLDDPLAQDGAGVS

Turning to `Cc1cccc(Cn2nc3c(N)nc(-c4cccc(C#N)c4)c(-c4ccncc4)c3n2)n1` [Example 25, 3-(4-amino-2-((6-methylpyridin-2-yl)methyl)-7-(pyridin-4-yl)-2H-[1,2,3]triazolo[4,5-c]pyridin-6-yl)benzonitrile], the EC50 in experiment [1] was no more than 10 nM. Further, the Ki in experiment [2] was no more than 10 nM.

In the case of `Cc1cccc(Cn2nc3c(N)nc(-c4cccc(C#N)c4)c(-c4ccncc4C)c3n2)n1` [Example 26, 3-(4-amino-2-((6-methylpyridin-2-yl)methyl)-7-(3-methylpyridin-4-yl)-2H-[1,2,3]triazolo[4,5-c]pyridin-6-yl)benzonitrile], the EC50 in experiment [1] is no more than 10 nM. Moreover, the Ki in experiment [2] is no more than 10 nM.

Turning to `Cc1cccc(Cn2nc3c(N)nc(-c4cccc(C#N)c4)c(-c4ccc(=O)n(C)c4)c3n2)n1` [Example 27, 3-(4-amino-7-(1-methyl-6-oxo-1,6-dihydropyridin-3-yl)-2-((6-methylpyridin-2-yl)methyl)-2H-[1,2,3]triazolo[4,5-c]pyridin-6-yl)benzonitrile], in experiment [1], the EC50 was 10 to 100 nM. In experiment [2], the Ki was no more than 10 nM.

Consider `CCn1nccc1-c1c(-c2cccc(C#N)c2)nc(N)c2nn(Cc3cccc(C)n3)nc12` [Example 28, 3-(4-amino-7-(1-ethyl-1H-pyrazol-5-yl)-2-((6-methylpyridin-2-yl)methyl)-2H-[1,2,3]triazolo[4,5-c]pyridin-6-yl)benzonitrile], for which, in experiment [1], the EC50 was no more than 10 nM. In experiment [2], this molecule displayed a Ki of no more than 10 nM.

With `Cc1cccc(Cn2nc3c(N)nc(-c4cccc(C#N)c4)c(-c4ocnc4C)c3n2)n1` [Example 29, 3-(4-amino-7-(4-methyloxazol-5-yl)-2-((6-methylpyridin-2-yl)methyl)-2H-[1,2,3]triazolo[4,5-c]pyridin-6-yl)benzonitrile], the EC50 in experiment [1] was no more than 10 nM. Besides, the Ki in experiment [2] is no more than 10 nM.

As for `N#Cc1cccc(-c2nc(N)c3nn(Cc4ncccc4F)nc3c2-c2ccncn2)c1` [Example 30, 3-(4-amino-2-((3-fluoropyridin-2-yl)methyl)-7-(pyrimidin-4-yl)-2H-[1,2,3]triazolo[4,5-c]pyridin-6-yl)benzonitrile], the EC50 in experiment [1] is no more than 10 nM. The inhibitory constant (Ki) in experiment [2] is no more than 10 nM.

For `N#Cc1cccc(-c2nc(N)c3nn(Cc4ncccc4F)nc3c2-c2ccncc2)c1` [Example 31, 3-(4-amino-2-((3-fluoropyridin-2-yl)methyl)-7-(pyridin-4-yl)-2H-[1,2,3]triazolo[4,5-c]pyridin-6-yl)benzonitrile], in experiment [1], the EC50 was no more than 10 nM. Further, in experiment [2], the Ki is no more than 10 nM.

As to `Cn1cc(-c2c(-c3cccc(C#N)c3)nc(N)c3nn(Cc4ncccc4F)nc23)ccc1=O` [Example 32, 3-(4-amino-2-((3-fluoropyridin-2-yl)methyl)-7-(1-methyl-6-oxo-1,6-dihydropyridin-3-yl)-2H-[1,2,3]triazolo[4,5-c]pyridin-6-yl)benzonitrile], in experiment [1], the EC50 fell in the range of 10 to 100 nM. Further, the Ki in experiment [2] is no more than 10 nM.

As for `CCn1nccc1-c1c(-c2cccc(C#N)c2)nc(N)c2nn(Cc3ncccc3F)nc12` [Example 33, 3-(4-amino-7-(1-ethyl-1H-pyrazol-5-yl)-2-((3-fluoropyridin-2-yl)methyl)-2H-[1,2,3]triazolo[4,5-c]pyridin-6-yl)benzonitrile], in experiment [1], the EC50 is no more than 10 nM. The molecule also showed a Ki in experiment [2] of no more than 10 nM.

In the case of `CC(C)n1nccc1-c1c(-c2cccc(C#N)c2)nc(N)c2nn(Cc3ncccc3F)nc12` [Example 34, 3-(4-amino-2-((3-fluoropyridin-2-yl)methyl)-7-(1-isopropyl-1H-pyrazol-5-yl)-2H-[1,2,3]triazolo[4,5-c]pyridin-6-yl)benzonitrile], the EC50 in experiment [1] was no more than 10 nM. For the same molecule, in experiment [2], the Ki was no more than 10 nM.

`Cn1nccc1-c1c(-c2cccc(C#N)c2)nc(N)c2nn(Cc3ncccc3F)nc12` [Example 35, 3-(4-amino-2-((3-fluoropyridin-2-yl)methyl)-7-(1-methyl-1H-pyrazol-5-yl)-2H-[1,2,3]triazolo[4,5-c]pyridin-6-yl)benzonitrile]: the EC50 in experiment [1] is no more than 10 nM. The Ki in experiment [2] is no more than 10 nM.

For `Cc1ncoc1-c1c(-c2cccc(C#N)c2)nc(N)c2nn(Cc3ncccc3F)nc12` [Example 36, 3-(4-amino-2-((3-fluoropyridin-2-yl)methyl)-7-(4-methyloxazol-5-yl)-2H-[1,2,3]triazolo[4,5-c]pyridin-6-yl)benzonitrile], in experiment [1], the EC50 is no more than 10 nM. The molecule also had an inhibition constant Ki in experiment [2] of no more than 10 nM.

On to `N#Cc1cccc(-c2nc(N)c3nn(Cc4ncccc4F)nc3c2-c2ccc3nccnc3c2)c1` [Example 37, 3-(4-amino-2-((3-fluoropyridin-2-yl)methyl)-7-(quinoxalin-6-yl)-2H-[1,2,3]triazolo[4,5-c]pyridin-6-yl)benzonitrile], for which the EC50 in experiment [1] lay within 10 to 100 nM. In experiment [2], this molecule had a Ki of no more than 10 nM.

As to `CCn1nccc1-c1c(-c2cccc(C#N)c2F)nc(N)c2nn(Cc3ccccn3)nc12` [Example 38, 3-(4-amino-7-(1-ethyl-1H-pyrazol-5-yl)-2-(pyridin-2-ylmethyl)-2H-[1,2,3]triazolo[4,5-c]pyridin-6-yl)-2-fluorobenzonitrile], in experiment [1], the EC50 was no more than 10 nM. The molecule further showed a Ki in experiment [2] of no more than 10 nM.

Take `Cn1nccc1-c1c(-c2cccc(C#N)c2F)nc(N)c2nn(Cc3ccccn3)nc12` [Example 39, 3-(4-amino-7-(1-methyl-1H-pyrazol-5-yl)-2-(pyridin-2-ylmethyl)-2H-[1,2,3]triazolo[4,5-c]pyridin-6-yl)-2-fluorobenzonitrile]: the EC50 in experiment [1] was no more than 10 nM. Further, the inhibition constant (Ki) in experiment [2] is no more than 10 nM.

`CC(C)n1nccc1-c1c(-c2cccc(C#N)c2F)nc(N)c2nn(Cc3ccccn3)nc12` [Example 40, 3-(4-amino-7-(1-isopropyl-1H-pyrazol-5-yl)-2-(pyridin-2-ylmethyl)-2H-[1,2,3]triazolo[4,5-c]pyridin-6-yl)-2-fluorobenzonitrile]: the EC50 in experiment [1] is no more than 10 nM. Besides, the Ki in experiment [2] was no more than 10 nM.

On to `Cc1ncoc1-c1c(-c2cccc(C#N)c2F)nc(N)c2nn(Cc3ccccn3)nc12` [Example 41, 3-(4-amino-7-(4-methyloxazol-5-yl)-2-(pyridin-2-ylmethyl)-2H-[1,2,3]triazolo[4,5-c]pyridin-6-yl)-2-fluorobenzonitrile], for which, in experiment [1], the EC50 is no more than 10 nM. In addition, the Ki in experiment [2] is no more than 10 nM.

For `Cc1nc(CO)c(-c2c(-c3cccc(C#N)c3F)nc(N)c3nn(Cc4ccccn4)nc23)o1` [Example 42, 3-(4-amino-7-(4-(hydroxymethyl)-2-methyloxazol-5-yl)-2-(pyridin-2-ylmethyl)-2H-[1,2,3]triazolo[4,5-c]pyridin-6-yl)-2-fluorobenzonitrile], in experiment [1], the EC50 was in the range of 10 to 100 nM. This molecule came in with a Ki in experiment [2] of no more than 10 nM.

`N#Cc1cccc(-c2nc(N)c3nn(Cc4ccccn4)nc3c2-c2ccc3nccnc3c2)c1F` [Example 43, 3-(4-amino-2-(pyridin-2-ylmethyl)-7-(quinoxalin-6-yl)-2H-[1,2,3]triazolo[4,5-c]pyridin-6-yl)-2-fluorobenzonitrile]: the EC50 in experiment [1] lay within 100 to 1000 nM. The same molecule registered a Ki in experiment [2] of no more than 10 nM.

Regarding `Cn1ccc(Cn2nc3c(N)nc(-c4cccc(C#N)c4)c(-c4ccncn4)c3n2)n1` [Example 44, 3-(4-amino-2-((1-methyl-1H-pyrazol-3-yl)methyl)-7-(pyrimidin-4-yl)-2H-[1,2,3]triazolo[4,5-c]pyridin-6-yl)benzonitrile], the EC50 in experiment [1] was no more than 10 nM. Also, in experiment [2], the Ki is no more than 10 nM.

The Ki is a measure of affinity in units of concentration, obtained from inhibition or displacement. High values mean lower affinity, low ones higher affinity.
